# How the values were obtained:
# [1] = Distribution coefficient, single contact in tubes, 1.5 mol/L DEHiBA in Isane IP 185 vs nitric acid solutions (ICP-AES); assay type: physicochemical; conditions: HNO3 0.5 to 4 M, 25° C.
# [2] = assay type: physicochemical; conditions: 1.5 mol/L DEHiBA in Isane IP 185; aqueous 360 g/L uranium, 2 mol/L nitric acid; even after uranium depletion; 25° C.
# [3] = Distribution coefficient, single contact in tubes, 1.5 mol/L DEHiBA in Isane IP 185 vs nitric acid solutions (ICP-AES); assay type: physicochemical; conditions: HNO3 0.5 to 4 M, 25° C.; remark: listed apart in the source
# [4] = assay type: physicochemical; conditions: 1.5 mol/L DEHiBA in Isane IP 185, HNO3 0.5 to 4 M, 25° C.
# [5] = Solubility of DEHiBA in an aqueous phase by total organic carbon (TOC) measurement, test in mixers-decanters; assay type: physicochemical; conditions: for DEHiBA equivalent: assumes all organic carbon stems from the extractant
# Description: The solubility of DEHiBA in an aqueous phase was appreciated by conducting a test in mixers-decanters similar to the one described in Example 1 hereinbefore and by measuring the total organic carbon (or TOC) present in the aqueous phase exiting the battery 11 (called <<extraction raffinate>> hereafter) on the one hand and, in the aqueous phase exiting the battery 13 and containing the purified uranyl nitrate (called <<U production>> hereafter) on the other hand.
# The total organic carbon was measured by means of a thermal TOC-meter in the aqueous phases as obtained after decantation, i.e. without submitting these phases to any centrifugation.
# [6] = Distribution coefficient, single contact in tubes, 1.5 mol/L DEHiBA in Isane IP 185 vs nitric acid solutions (ICP-AES); assay type: physicochemical; conditions: HNO3 0.5 to 4 M, 25° C.; remark: listed apart in the source
# [7] = as above; assay type: physicochemical; conditions: HNO3 0.5 to 4 M, 25° C.; remark: listed apart in the source
# [8] = as above; assay type: physicochemical; conditions: nitric acid 4 mol/L, regardless of the uranium concentration, 25° C.
# [9] = with or without 30 g/L uranium, 1 hour
structure (smiles),measurement,setting,value
"CCCCC(CC)CN(CC(CC)CCCC)C(=O)C(C)C (stereo not drawn) [DEHiBA, N,N-di-(2-ethylhexyl)isobutyramide]",U/impurities separation factor (molybdenum),[1],"greater than 10,000"
same,distribution coefficient of molybdenum,[1]; [9],less than 10^−3
same,"distribution coefficient of thorium 234, DTh",[2],less than 10^−2
same,U/impurities separation factor (calcium),[3],"greater than 10,000"
same,distribution coefficient of calcium,[3]; [9],less than 10^−3
same,U/impurities separation factor (iron),[4],"greater than 10,000"
same,distribution coefficient of iron,[4]; [9],less than 10^−3
same,DEHiBA equivalent,"[5]; U production, HNO3 0.34 mol/L",0.00019 mol/L
same,solubility,"[5]; aqueous phase after decantation, under the conditions of the test, includes diluent (TPH) and carried-away organic phase, read-out: DEHiBA soluble in an aqueous phase",40 to 60 µg/mL
same,DEHiBA equivalent,"[5]; extraction raffinate, HNO3 3.1 mol/L",0.00013 mol/L
same,U/impurities separation factor (vanadium),[6],"greater than 10,000"
same,distribution coefficient of vanadium,[6]; [9],less than 10^−3
same,U/impurities separation factor (zirconium),[7],"greater than 10,000"
same,distribution coefficient of zirconium,[7]; [9],less than 10^−3
same,distribution coefficient of thorium(IV),[8],less than 5.10^−3
